From ChEMBL document CHEMBL5107976, “Chalcone-amide, a privileged backbone for the design and development of selective SARS-CoV/SARS-CoV-2 papain-like protease inhibitors” (Eur J Med Chem, 2022)
≈ marks a conversion by molar mass, not a printed value.

Legend:
[1] = biological target: T1, Replicase polyprotein 1ab (Severe acute respiratory syndrome coronavirus 2, UniProt P0DTD1); test: Inhibition of C-terminal His-tagged SARS-CoV-2 PLpro BetaCoV/Wuhan/WIV04/2019 strain (1564 to 1876 residues) expressed in Escherichia coli BL21(DE3) using FRET substrate measured after 3 hrs by enzymatic assay
Human rhinovirus sp. = test: Antiviral activity against HRV infected in human HeLa cells assessed as inhibition in virus replication by plaque assay; format: functional, organism-based
SARS-CoV-2 [2] = test: Antiviral activity against SARS-CoV-2 infected in human Caco-2 cells expressing hACE2 assessed as reduction in virus replication incubated for 48 hrs by Western blot analysis; format: functional, organism-based; settings: Severe acute respiratory syndrome coronavirus 2, Caco-2, 48 h
SARS-CoV-2 [3] = test: Antiviral activity against SARS-CoV-2 infected in African green monkey Vero E6 cells assessed as reduction in viral replication at MOI of 0.5 incubated for 23 hrs by plaque assay; format: functional, organism-based; settings: Severe acute respiratory syndrome coronavirus 2, Vero C1008, 23 h
[4] = Inhibition of SARS-CoV PLpro using Z-Arg-Leu-Arg-Gly-Gly-AMC acetate as substrate by fluorometric assay; parameters: species or system Severe acute respiratory syndrome-related coronavirus
[5] = Cytotoxicity against African green monkey Vero E6 cells assessed as reduction in cell viability; format: toxicity, cell-based, Vero C1008; settings: chlorocebus sabaeus
SARS-CoV-2 [6] = test: Antiviral activity against SARS-CoV-2 infected in human Caco-2 cells expressing hACE2 assessed as reduction in virus replication; format: functional, organism-based; settings: Severe acute respiratory syndrome coronavirus 2, Caco-2
[7] = biological target: T1, Replicase polyprotein 1ab; test: Inhibition of SARS-CoV-2 PLpro
[8] = Inhibition of SARS-CoV PLpro (1541 to 1855 residues) using RLRGG-AMC as substrate preincubated for 5 mins followed by substrate addition measured after 6 mins by fluorescence based assay; parameters: species or system Severe acute respiratory syndrome-related coronavirus

COc1cc(O)ccc1CN(C)[C@H](C)c1cccc2ccccc12
IC50 [1]: 0.58 µM

COc1ccc(CNC(=O)c2c(O)cc(OCC=C(C)C)cc2OC)cc1
IC50 (Human rhinovirus sp.): 0.0072 µg/mL (≈ 0.0194 µM)

C[C@H](c1cccc2ccccc12)N1CCC(C(=O)NCc2cc(F)cc(NC(=O)N3CCN(C)CC3)c2)CC1
EC50 (SARS-CoV-2 [2]): 0.18 µM

C[C@H](c1cccc2ccccc12)N1Cc2ccccc2C1
EC50 (SARS-CoV-2 [3]): 7.85 µM
IC50 [4]: 2.9 µM
CC50 [5]: 442 µM

C[C@@H](NC(=O)c1ccccc1Cl)c1cccc2ccccc12
EC50 (SARS-CoV-2 [3]): 1.77 µM
IC50 [4]: 6.5 µM
CC50 [5]: 376 µM

CCOc1cc(O)c(C(=O)/C=C/c2ccc(OC)cc2)c(OC)c1
IC50 (Human rhinovirus sp.): 0.045 µg/mL (≈ 0.137 µM)

Cc1cc(NS(C)(=O)=O)ccc1C(=O)N[C@H](C)c1cccc2ccccc12
IC50 [4]: 4.8 µM

Cc1ccc(N)cc1C(=O)N[C@H](C)c1cccc2ccccc12
EC50 (SARS-CoV-2 [6]): 25.1 µM

C[C@H](c1cccc2ccccc12)N1Cc2ccc(N)cc2C1
IC50 [4]: 4.9 µM

Cc1ccc(NC2CNC2)cc1C(=O)N[C@H](C)c1cccc(-c2ccc(CNC[C@H]3CCCO3)s2)c1
IC50 [7]: 0.76 µM

C[C@H](c1cccc2ccccc12)N1CCC(C(=O)NCc2cccc(NC(=O)N3CCN(C)CC3)c2)CC1
EC50 (SARS-CoV-2 [2]): 0.6 µM

C[C@H](c1cccc2ccccc12)N(C)Cc1ccc(O)cc1
EC50 (SARS-CoV-2 [6]): 8.32 µM

CCOc1cc(O)c(C(=O)NCc2ccc(OC)cc2)c(OC)c1
IC50 (Human rhinovirus sp.): 0.014 µg/mL (≈ 0.0422 µM)

COc1ccc(CNC(=O)C2CCN(Cc3cccc4ccccc34)CC2)cc1
IC50 [8]: 59.2 µM

Cc1cc(N)ccc1C(=O)N[C@H](C)c1cccc2ccccc12
EC50 (SARS-CoV-2 [3]): 15.8 µM
IC50 [4]: 1.2 µM
CC50 [5]: > 500 µM

C[C@H](c1cccc2ccccc12)N1CCC(C(=O)NCc2cc(F)cc(NC(=O)CN(C)C)c2)CC1
EC50 (SARS-CoV-2 [2]): 0.22 µM

Cc1ccc(N(C)C)cc1C(=O)N[C@H](C)c1cccc2ccccc12
IC50 [4]: 4 µM

CCOc1cc(O)c(C(=O)NCc2ccc(NC)cc2)c(OC)c1
IC50 (Human rhinovirus sp.): 0.022 µg/mL (≈ 0.0666 µM)

C[C@H](c1cccc2ccccc12)N1Cc2ccc(O)cc2C1
IC50 [4]: 4.5 µM

CNS(=O)(=O)c1ccc(C)c(C(=O)N[C@H](C)c2cccc3ccccc23)c1
IC50 [4]: 4 µM

Cc1ccc(N)cc1CN(C)[C@H](C)c1cccc2ccccc12
EC50 (SARS-CoV-2 [6]): 8.89 µM
IC50 [1]: 0.99 µM

Cc1ccsc1C(=O)N[C@H](C)c1cccc2ccccc12
EC50 (SARS-CoV-2 [3]): 4.74 µM
IC50 [4]: 14 µM
CC50 [5]: > 500 µM
